Patent US6525178B2, “PGC-1, a novel brown fat PPARgamma coactivator” (Dana-Farber Cancer Institute, priority 1997, dated 2003)

Columns and labels:
[1] = target: T1, retinoid-X receptor (RXRα) (Homo sapiens, UniProt P19793); assay: In vitro binding of GST-PGC-1 to in vitro-translated nuclear receptor; conditions: with or without ligand addition
T1 construct: made in house; host or cells: receptor: reticulocyte lysate in vitro translation (Promega TNT); GST-PGC-1: E. coli
T1 sequence (P19793 1-462): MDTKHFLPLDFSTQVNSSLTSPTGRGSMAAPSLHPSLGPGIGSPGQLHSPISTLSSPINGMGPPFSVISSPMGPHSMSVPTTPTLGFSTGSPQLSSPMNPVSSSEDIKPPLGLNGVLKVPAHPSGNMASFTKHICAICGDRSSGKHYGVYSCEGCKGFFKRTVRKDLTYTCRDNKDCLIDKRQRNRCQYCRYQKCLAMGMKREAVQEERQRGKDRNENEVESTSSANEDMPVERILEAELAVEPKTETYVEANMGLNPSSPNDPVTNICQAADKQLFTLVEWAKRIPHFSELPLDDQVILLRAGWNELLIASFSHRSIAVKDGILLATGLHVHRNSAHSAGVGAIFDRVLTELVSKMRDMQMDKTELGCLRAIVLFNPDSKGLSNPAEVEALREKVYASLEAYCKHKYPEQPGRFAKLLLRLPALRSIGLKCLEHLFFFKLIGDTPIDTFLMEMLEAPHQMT
Method: The assays were carried out as follows.

[2] = test system: 3T3-F442A cells; assay: Southern blot analysis of mitochondrial DNA in 3T3-F442A cells expressing PGC-1; format: cell-based; conditions: cells expressing PGC-1, COX-II cDNA probe
Method: Changes in the cellular content of mitochondrial DNA have been used as a simple biochemical assay for mitochondrial proliferation (Martin et al. (1995) Biochem. J. 308:749-752; Klingenspor et al. (1996) Biochem. J. 316:607-613). To address this possibility, Southern blot analysis of mitochondrial DNA was performed. 3T3-F442A Southern blots were carried out by isolating and processing genomic DNA as described in Maniatis et al. (1989) Molecular Cloning: A Laboratory Manual, 2nd Ed. (Cold Spring Harbor, N.Y.: Cold Spring Harbor Laboratory Press)). 3T3-F442A cells were differentiated as described above. Total cellular DNA was isolated and was digested with NCo I. Ten micrograms of DNA were electrophoresed, and the Southern blot was hybridized using COX-II cDNA as a probe for mitrochondrial DNA.
The same blots were also probed with cDNA for 36B4, a ribosomal protein encoded in the nucleus. The blot was then stripped and hybridized with the nuclear gene […].

[3] = test system: 3T3-F442A preadipocytes; assay: Northern analysis of 3T3-F442A cells with retroviral ectopic expression of PGC-1; format: cell-based
Text: To examine directly the ability of PGC-1 to regulate the genes of adaptive thermogenesis, retroviral vectors have been used to express this protein in white fat precursor cells, and 3T3-F442A preadipocytes were then stimulated to differentiate. Briefly, the PGC-1 viral expression vector (pBabe-PGC-1) was constructed by ligating the BamHI-Xhol fragment from pBluescript-PGC-1 plasmid into BamHI/Sall sites of pBabe-puro. Following drug selection, virally infected 3T3F442A-PGC-1 and […] cells lines were grown to confluence in DMEM with 10% BCS. Differentiation of these cells was initiated by culturing them in DMEM insulin. Cells were refed every 2 days with this medium. Specific cells were grown in DMEM with 10% CCS to confluence. […] After these treatments, total RNA was isolated and analyzed.
To induce UCP-1 expression, 1 μM 8-bromo-cAMP and […] 9-cis-retinoic acid were added to the medium, and total RNA was extracted from the cells 6 hr later. […] The mitochondrial respiratory enzyme cytochrome c-oxidase subunits COX II and IV are encoded in the mitochondrial and nuclear genome, respectively. Both of these mRNAs increase 2- to 3-fold in the cells ectopically expressing PGC-1. Expression of aP2, a white and brown fat cell gene not linked to thermogenesis, and 36B4, a ribosomal protein are shown as a loading control.

[4] = target: T2, PPARγ (Mus musculus, UniProt P37238); assay: In vitro binding of GST-PGC-1 to in vitro-translated nuclear receptor; conditions: GST-PGC-1 (aa 36-797) on beads
T2 construct: made in house; host or cells: receptor: reticulocyte lysate in vitro translation (Promega TNT); GST-PGC-1: E. coli
T2 sequence (P37238 1-505): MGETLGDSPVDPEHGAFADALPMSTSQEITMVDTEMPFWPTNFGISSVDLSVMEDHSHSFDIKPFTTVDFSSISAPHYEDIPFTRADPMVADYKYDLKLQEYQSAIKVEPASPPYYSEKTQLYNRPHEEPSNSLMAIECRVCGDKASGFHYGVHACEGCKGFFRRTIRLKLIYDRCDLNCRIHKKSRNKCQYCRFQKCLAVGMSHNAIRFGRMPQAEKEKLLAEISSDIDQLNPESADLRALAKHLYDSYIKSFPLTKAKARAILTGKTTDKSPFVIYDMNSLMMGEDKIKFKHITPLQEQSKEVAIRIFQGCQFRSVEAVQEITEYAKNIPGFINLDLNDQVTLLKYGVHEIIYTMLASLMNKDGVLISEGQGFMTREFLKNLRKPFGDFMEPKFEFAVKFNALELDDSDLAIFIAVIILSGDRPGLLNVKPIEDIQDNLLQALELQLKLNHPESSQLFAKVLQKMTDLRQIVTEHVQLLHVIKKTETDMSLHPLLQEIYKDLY
T2 sequence (O70343 36-797 partner limits assumed): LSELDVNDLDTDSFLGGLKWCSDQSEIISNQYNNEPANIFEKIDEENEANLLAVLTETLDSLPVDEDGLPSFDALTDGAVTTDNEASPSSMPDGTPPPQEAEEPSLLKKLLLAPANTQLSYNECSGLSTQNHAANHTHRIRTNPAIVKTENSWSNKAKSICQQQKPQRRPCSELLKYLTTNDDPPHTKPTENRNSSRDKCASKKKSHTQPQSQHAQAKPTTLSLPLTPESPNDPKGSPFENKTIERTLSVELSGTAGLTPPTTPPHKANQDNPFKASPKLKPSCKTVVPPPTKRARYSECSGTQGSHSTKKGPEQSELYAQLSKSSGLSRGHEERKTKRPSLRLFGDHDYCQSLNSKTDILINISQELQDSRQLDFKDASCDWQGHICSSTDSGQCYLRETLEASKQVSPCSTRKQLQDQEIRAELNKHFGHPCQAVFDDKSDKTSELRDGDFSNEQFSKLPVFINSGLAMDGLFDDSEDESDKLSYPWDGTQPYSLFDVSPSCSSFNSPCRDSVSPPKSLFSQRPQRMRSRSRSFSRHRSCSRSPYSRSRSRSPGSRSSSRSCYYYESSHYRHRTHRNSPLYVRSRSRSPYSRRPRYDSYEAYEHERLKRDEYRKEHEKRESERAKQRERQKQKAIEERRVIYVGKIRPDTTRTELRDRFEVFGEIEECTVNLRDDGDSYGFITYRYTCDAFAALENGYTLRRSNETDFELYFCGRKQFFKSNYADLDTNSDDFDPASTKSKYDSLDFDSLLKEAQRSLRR
Method: These fusion proteins were expressed, and purified from E. coli on beads containing approximately 1 μg of protein (either GST, or alone, or fused to PGC-1), 30 μl was resuspended i the binding buffer (20 mM HEPES [pH 7.7], 75 mM KCl, 0.1 mM EDTA, 2.5 mM MgCl2, 0.05% NP40,2 mM DTT, 10% glycerol).
The assays were carried out as follows. […] After electrophoresis, fixation, and enhancement, the radiolabeled proteins were visualized by autoradiography.

PGC-1: mouse PPARγ coactivator 1 protein, SEQ ID NO:2; used as GST fusion or expressed from retroviral vector
binding of PGC-1 to RXRα [1]: little or no binding
mitochondrial DNA content compared to control cells [2]: twice
mRNA for ATP synthetase ([3]; cells expressing PGC-1 vs control): increased
mRNA for UCP-1 ([3]; cells expressing PGC-1 vs control 3T3-F442A cells, 8-bromo-cAMP and 9-cis-retinoic acid, 6 hr): significantly induced
binding of PGC-1 to PPARγ [4]: interacted with PPARγ
